Earlier results on 33 compounds are cited in the PKSmart pharmacokinetics tables (Seal et al. 2025).

By MRT is commonly meant the average time that molecules of a dose stay in the body. What is called Vd is the apparent volume that relates the amount in the body to the concentration in plasma or blood. A word on the clearance: it is a measure of how efficiently the substance is removed, as volume per time. As a reminder, the fraction unbound is free concentration divided by total concentration. A word on the half-life: it is the time needed for the level to fall by half in the phase considered.

A short description of the series: Lombardo, Berellini, Obach 2018, Drug Metab Dispos 46:1466, doi 10.1124/dmd.118.082966. Conditions: human; for MRT / Vd / clearance / half-life: in vivo, iv; for fraction unbound: plasma.

For the compound `C[C@H]1O[C@@H](O[C@H]2[C@@H](O)C[C@H](O[C@H]3[C@@H](O)C[C@H](O[C@H]4CC[C@@]5(C)[C@H](CC[C@@H]6[C@@H]5CC[C@]5(C)[C@@H](C7=CC(=O)OC7)CC[C@]65O)C4)O[C@@H]3C)O[C@@H]2C)C[C@H](O)[C@@H]1O`, the MRT was 170 h, the Vd was 0.44 L/kg, the clearance is 0.00258 L/h/kg and the fraction unbound is 0.066.
Regarding `Cc1nnc(C(C)C)n1C1C[C@H]2CC[C@@H](C1)N2CC[C@@H](NC(=O)C1CCC(F)(F)CC1)c1ccccc1` (some centres not stated), the MRT was 4.2 h and the half-life was 12.8 h.
For the compound `S=P(N1CC1)(N1CC1)N1CC1`, the mean residence time MRT is 4 h, the Vd is 1.6 L/kg, the clearance is 0.402 L/h/kg and the half-life is 2.7 h.
For the compound `COC(=O)NC(C(=O)N1CCCC1C(=O)Nc1ccc([C@@H]2CC[C@@H](c3ccc(NC(=O)C4CCCN4C(=O)C(NC(=O)OC)C(C)C)cc3)N2c2ccc(C(C)(C)C)cc2)cc1)C(C)C` (some centres not stated), the MRT is 23.1 h, the Vd was 2.32 L/kg, the clearance was 0.101 L/h/kg and the half-life was 28.5 h. Also, the fraction unbound is 0.001.
For the compound `COc1ccc(Cl)cc1C(=O)NCCc1ccc(S(=O)(=O)NC(=O)NC2CCCCC2)cc1`, the MRT is 1.6 h, the Vd is 0.08 L/kg, the half-life was 2.2 h and the fraction unbound was 0.021.
In the case of `CN(C)[C@@H]1C(O)=C(C(=O)NCN2CCCC2)C(=O)[C@@]2(O)C(O)=C3C(=O)c4c(O)cccc4[C@@](C)(O)[C@H]3C[C@@H]12`, the MRT is 9.3 h, the Vd was 0.54 L/kg, the clearance was 0.0582 L/h/kg and the half-life was 8.8 h. Further, the fraction unbound is 0.5.
As to `Cc1cn[nH]c1`, the MRT was 7.94 h, the Vd is 0.35 L/kg, the clearance is 0.0438 L/h/kg and the half-life is 4.42 h.
Turning to `NS(=O)(=O)OC[C@@H]1C[C@@H](n2ccc3c(N[C@H]4CCc5ccccc54)ncnc32)C[C@@H]1O`, the MRT was 6.21 h, the Vd was 3.02 L/kg, the clearance was 0.486 L/h/kg and the half-life is 5.62 h.
In the case of `C[C@@H]([C@@](O)(Cn1cncn1)c1ccc(F)cc1F)S(C)(=O)=O`, the MRT was 54 h, the Vd was 0.62 L/kg, the clearance is 0.0114 L/h/kg and the half-life is 49 h.
Regarding `O=c1ccc2ncc(=O)n3c2n1C[C@H]3CN1CCC(NCc2cc3c(cn2)OCCC3)CC1`, the MRT was 4.86 h, the Vd was 2.7 L/kg, the clearance was 0.554 L/h/kg and the half-life is 12.6 h.
For `Cc1nc(NNC(=O)C(CC2CCCC2)CN(O)C=O)c(F)c(N2CCN3CCOCC3C2)n1` (configuration not stated), the MRT is 2.2 h, the Vd was 0.75 L/kg, the clearance was 0.336 L/h/kg and the half-life is 4.2 h.
Turning to `O=C(O)C[C@H](O)C[C@H](O)/C=C/c1c(C2CC2)nc2ccccc2c1-c1ccc(F)cc1`, the MRT was 2.7 h, the Vd was 0.9 L/kg, the clearance was 0.351 L/h/kg and the half-life is 4.6 h. Also, the fraction unbound is 0.005.
Regarding `COCCCN1CCC(NC(=O)c2cc(Cl)c(N)c3c2OCC3)CC1`, the MRT was 32.2 h, the Vd is 8.73 L/kg, the clearance was 0.273 L/h/kg and the half-life is 22.5 h. Moreover, the fraction unbound was 0.7.
For `CC[C@@H](CO)NC(=O)C1C=C2c3cccc4[nH]cc(c34)C[C@H]2N(C)C1` (some centres not stated), the MRT was 2.25 h, the volume of distribution (Vd) is 0.96 L/kg, the clearance is 0.431 L/h/kg and the half-life is 1.85 h.
In the case of `CCOc1ccc2c(c1)[C@]1(CC[C@H](OCCN3CCOCC3)CC1)C(=O)N2S(=O)(=O)c1ccc(C(=O)NC(C)(C)C)cc1OC`, the MRT was 9.4 h, the Vd is 7 L/kg, the clearance was 0.738 L/h/kg and the half-life was 10.4 h. The fraction unbound was 0.1.
As to `C[C@H](CN1CCOCC1)C(C(=O)N1CCCC1)(c1ccccc1)c1ccccc1`, the MRT is 3.88 h, the volume of distribution (Vd) is 0.47 L/kg, the clearance was 0.131 L/h/kg and the half-life was 3.18 h.
As for `COc1ccc(C2(C#N)CCC(C(=O)O)CC2)cc1OC1CCCC1` (configuration not stated), the mean residence time (MRT) was 8.5 h, the Vd is 0.23 L/kg, the clearance is 0.03 L/h/kg and the half-life is 7.9 h.
Consider `CN(C)C(=O)Oc1cc(OC(=O)N(C)C)cc(C(O)CNC(C)(C)C)c1` (configuration not stated), for which the MRT is 1.4 h, the Vd is 1.6 L/kg, the clearance is 1.08 L/h/kg and the half-life was 2.6 h.
For `NCCCNc1ccc2c(CNCCO)nn3c4c(O)ccc(O)c4c(=O)c1c23`, the MRT was 11 h, the Vd was 12 L/kg, the clearance is 1.08 L/h/kg and the half-life is 32 h.
`CN1C2CCC1CC(=C1c3ccccc3CSc3ccccc31)C2`: the MRT is 39.5 h, the Vd is 11.8 L/kg, the clearance is 0.299 L/h/kg and the half-life is 29.8 h.
For the compound `N[C@@H]1CN(c2c(F)cc3c(=O)c(C(=O)O)cn([C@@H]4C[C@@H]4F)c3c2Cl)CC12CC2`, the MRT was 6.7 h, the Vd was 1.5 L/kg, the clearance was 0.222 L/h/kg and the half-life is 6.6 h.
For `Cc1ccc([C@@H]2O[C@H](CO)[C@@H](O)[C@H](O)[C@H]2O)cc1Cc1ccc(-c2ccc(F)cc2)s1`, the MRT is 7.25 h, the Vd was 1.19 L/kg, the clearance is 0.164 L/h/kg and the half-life was 10.3 h. The fraction unbound was 0.01.
With `C/C(=C\[C@H](C(C)C)N(C)C(=O)C(NC(=O)C1CCCCN1C(C)C)C(C)(C)C)C(=O)O` (some centres not stated), the mean residence time (MRT) was 21.5 h, the Vd was 1.26 L/kg, the clearance was 0.0582 L/h/kg and the half-life is 17.5 h.
Regarding `O=C1c2ccc3ccccc3c2C(=O)N1CCNCCCNCCN1C(=O)c2ccc3ccccc3c2C1=O`, the MRT is 35.2 h, the Vd is 12 L/kg, the clearance is 0.342 L/h/kg and the half-life is 52.6 h.
With `Oc1cc2c(cc1O)[C@H](Cc1cccc3ccccc13)NCC2`, the MRT is 0.12 h, the Vd was 1.09 L/kg, the clearance is 9.36 L/h/kg and the half-life was 1.58 h.
Turning to `CNCC[C@@H](O)[C@@H]1C[C@H](SC2=C(C(=O)O)N3C(=O)C([C@@H](C)O)[C@H]3[C@H]2C)CN1` (some centres not stated), the MRT was 2.04 h, the Vd was 0.22 L/kg, the clearance was 0.121 L/h/kg and the half-life is 1.48 h.
With `CO[C@H]1/C=C/O[C@@]2(C)Oc3c(C)c(O)c4c(O)c(c(/C=N/N5CCN(C)CC5)c(O)c4c3C2=O)NC(=O)C(C)=CC=CC(C)[C@H](O)[C@@H](C)[C@@H](O)[C@@H](C)[C@H](OC(C)=O)[C@@H]1C` (some centres not stated), the mean residence time MRT is 4.6 h, the Vd was 0.97 L/kg and the clearance was 0.21 L/h/kg.
On to `C[C@@H]1C[C@H]2[C@@H]3C[C@H](F)C4=CC(=O)C=C[C@]4(C)[C@H]3[C@@H](O)C[C@]2(C)C1C(=O)CO` (some centres not stated), for which the MRT was 1.6 h, the Vd was 0.68 L/kg, the clearance was 0.42 L/h/kg and the half-life was 1.3 h. The fraction unbound was 0.04.
On to `CCN1CCC[C@H]1CNC(=O)c1c(O)c(Cl)cc(Cl)c1OC`, for which the MRT was 15.3 h, the Vd was 1.1 L/kg, the clearance was 0.072 L/h/kg and the half-life was 14 h. In addition, the fraction unbound was 0.06.
In the case of `C[C@](N)(Cc1ccc(O)c(O)c1)C(=O)O`, the MRT is 3.3 h, the Vd is 0.69 L/kg, the clearance is 0.21 L/h/kg and the half-life was 5.9 h.
`CC(=O)OCC1=C(C(=O)O)N2C(=O)C(NC(=O)CC#N)[C@H]2SC1` (some centres not stated): the MRT is 2.21 h, the Vd is 0.49 L/kg, the clearance was 0.221 L/h/kg and the half-life was 2.02 h.
As for `O=C(/C=C/c1ccccc1)NCCO`, the MRT was 1.93 h, the Vd was 0.11 L/kg, the clearance was 0.0594 L/h/kg and the half-life is 1.35 h.
In the case of `CCN(CC)CCNC(=O)c1cc(S(C)(=O)=O)ccc1OC`, the MRT was 3.8 h, the Vd was 1.1 L/kg, the clearance was 0.282 L/h/kg and the half-life is 3.2 h.
